Laboratory results reported in ChEMBL document CHEMBL5724914, “Linking interpersonal differences in gut microbiota composition and drug biotransformation activity” (2024).

Legend:
[1] = (§1) The drug is tested on Z-028 corresponding to mouse gut metagenome with ENA study accession number: PRJEB37062 and ENA sample accession number: ERS12561827 for biotransformation under anaerobic condition. The drug concentrations were measured over 9 timepoints collected between 0 and 24 hours of incubation by liquid-chromatography-coupled mass spectrometry (LC–MS); conditions: 2 µM
[2] = as §1, with “Z-024” for “Z-028”, “pig” for “mouse”, “ERS12561823” for “ERS12561827”; conditions: 2 µM
[3] = as §1, with “Z-009” for “Z-028”, “pig” for “mouse”, “ERS12561809” for “ERS12561827”; conditions: 2 µM
[4] = as §1, with “Z-005” for “Z-028”, “to” for “to mouse gut”, “ERS12561805” for “ERS12561827”; conditions: 2 µM
[5] = as §1, with “WLS-086” for “Z-028”, “human” for “mouse”, “ERS12561752” for “ERS12561827”; conditions: 2 µM
[6] = as §1, with “WLS-006” for “Z-028”, “human” for “mouse”, “ERS12561741” for “ERS12561827”; conditions: 2 µM
[7] = human gut metagenome, 24 h, 2 µM
[8] = human gut metagenome, 24 h, 2 µM; remark: listed apart in the source
[9] = human gut metagenome, 24 h, 2 µM; remark: listed apart in the source
[10] = human gut metagenome, 24 h, 2 µM; remark: listed apart in the source
[11] = human gut metagenome, 24 h, 2 µM; remark: listed apart in the source
[12] = human gut metagenome, 24 h, 2 µM; remark: listed apart in the source
[13] = human gut metagenome, 24 h, 2 µM; remark: listed apart in the source
[14] = human gut metagenome, 24 h, 2 µM; remark: listed apart in the source
[15] = as §1, with “Z-025” for “Z-028”, “rabbit” for “mouse”, “ERS12561824” for “ERS12561827”; conditions: 2 µM
[16] = as §1, with “Z-018” for “Z-028”, “pig” for “mouse”, “ERS12561817” for “ERS12561827”; conditions: 2 µM
[17] = as §1, with “WLS-082” for “Z-028”, “human” for “mouse”, “ERS12561751” for “ERS12561827”; conditions: 2 µM
[18] = as §1, with “WLS-073” for “Z-028”, “human” for “mouse”, “ERS12561749” for “ERS12561827”; conditions: 2 µM
[19] = human gut metagenome, 24 h, 2 µM; remark: listed apart in the source
[20] = as §1, with “Z-017” for “Z-028”, “ERS12561816” for “ERS12561827”; conditions: 2 µM
Note: call rule not given here.

Row | Bacterial Biotransformation [1] | Bacterial Biotransformation [2] | Bacterial Biotransformation [3] | Bacterial Biotransformation [4] | Bacterial Biotransformation [5] | Bacterial Biotransformation [6] | Bacterial Biotransformation [7] | Bacterial Biotransformation [8] | Bacterial Biotransformation [9] | Bacterial Biotransformation [10] | Bacterial Biotransformation [11] | Bacterial Biotransformation [12] | Bacterial Biotransformation [13] | Bacterial Biotransformation [14] | Bacterial Biotransformation [15] | Bacterial Biotransformation [16] | Bacterial Biotransformation [17] | Bacterial Biotransformation [18] | Bacterial Biotransformation [19] | Bacterial Biotransformation [20] | SMILES
1 | Compound NOT metabolized | Compound metabolized | Compound metabolized | Compound metabolized | Compound metabolized | Compound NOT metabolized | Compound NOT metabolized | Compound NOT metabolized | Compound NOT metabolized | Compound NOT metabolized | Compound NOT metabolized | Compound NOT metabolized | Compound NOT metabolized | Compound metabolized |  |  |  |  |  |  | CSc1ccc2c(c1)C(N1CCN(C)CC1)Cc1ccccc1S2.O=C(O)/C=C\C(=O)O (stereo not drawn)
2 | Compound NOT metabolized | Compound NOT metabolized | Compound NOT metabolized | Compound NOT metabolized | Compound metabolized | Compound NOT metabolized | Compound metabolized | Compound NOT metabolized | Compound NOT metabolized | Compound NOT metabolized | Compound NOT metabolized | Compound metabolized | Compound NOT metabolized | Compound metabolized | Compound NOT metabolized | Compound NOT metabolized | Compound NOT metabolized | Compound NOT metabolized | Compound NOT metabolized |  | CN1CCC[C@@H]1CCO[C@](C)(c1ccccc1)c1ccc(Cl)cc1.O=C(O)/C=C/C(=O)O [CLEMASTINE FUMARATE]
3 | Compound NOT metabolized | Compound metabolized | Compound metabolized | Compound NOT metabolized | Compound NOT metabolized | Compound NOT metabolized | Compound NOT metabolized | Compound NOT metabolized | Compound NOT metabolized | Compound NOT metabolized | Compound NOT metabolized | Compound NOT metabolized | Compound NOT metabolized | Compound NOT metabolized | Compound NOT metabolized |  | Compound NOT metabolized | Compound NOT metabolized | Compound NOT metabolized |  | CCOC(=O)[C@H](CCc1ccccc1)N[C@@H](C)C(=O)N1CCC[C@H]1C(=O)O.O=C(O)/C=C\C(=O)O [ENALAPRIL MALEATE]
4 | Compound metabolized | Compound metabolized | Compound metabolized | Compound metabolized | Compound metabolized | Compound metabolized | Compound metabolized | Compound metabolized | Compound metabolized | Compound metabolized | Compound metabolized | Compound metabolized | Compound metabolized | Compound metabolized | Compound metabolized |  | Compound metabolized | Compound metabolized | Compound metabolized | Compound metabolized | CC(=O)OCC(CCn1cnc2cnc(N)nc21)COC(C)=O [FAMCICLOVIR]
5 | Compound metabolized | Compound metabolized | Compound metabolized | Compound metabolized | Compound NOT metabolized |  | Compound metabolized | Compound metabolized | Compound metabolized | Compound metabolized | Compound metabolized |  | Compound metabolized | Compound NOT metabolized | Compound metabolized | Compound metabolized |  | Compound metabolized | Compound metabolized | Compound metabolized | C#C[C@]1(OC(C)=O)CC[C@H]2[C@@H]3CCC4=CC(=O)CC[C@@H]4[C@H]3CC[C@@]21C [NORETHINDRONE ACETATE]
6 | Compound metabolized | Compound metabolized | Compound metabolized |  | Compound metabolized | Compound metabolized | Compound metabolized | Compound metabolized | Compound metabolized | Compound metabolized | Compound metabolized | Compound metabolized | Compound metabolized | Compound metabolized | Compound NOT metabolized | Compound metabolized | Compound metabolized | Compound metabolized | Compound metabolized | Compound NOT metabolized | O=C1C(CC[S+]([O-])c2ccccc2)C(=O)N(c2ccccc2)N1c1ccccc1 (stereo not drawn) [SULFINPYRAZONE]
7 | Compound NOT metabolized | Compound metabolized | Compound metabolized | Compound NOT metabolized | Compound NOT metabolized | Compound NOT metabolized | Compound NOT metabolized | Compound NOT metabolized | Compound NOT metabolized | Compound NOT metabolized | Compound NOT metabolized | Compound NOT metabolized | Compound NOT metabolized | Compound NOT metabolized |  | Compound NOT metabolized | Compound metabolized | Compound metabolized |  | Compound NOT metabolized | CCCCCNC(=N)N/N=C/c1c[nH]c2ccc(OC)cc12.O=C(O)/C=C\C(=O)O [TEGASEROD MALEATE]

Row | SMILES | Bacterial Biotransformation [1] | Bacterial Biotransformation [2] | Bacterial Biotransformation [3] | Bacterial Biotransformation [4] | Bacterial Biotransformation [5] | Bacterial Biotransformation [6] | Bacterial Biotransformation [7] | Bacterial Biotransformation [8] | Bacterial Biotransformation [9] | Bacterial Biotransformation [10] | Bacterial Biotransformation [11] | Bacterial Biotransformation [12] | Bacterial Biotransformation [13] | Bacterial Biotransformation [14] | Bacterial Biotransformation [15] | Bacterial Biotransformation [16] | Bacterial Biotransformation [17] | Bacterial Biotransformation [18] | Bacterial Biotransformation [19] | Bacterial Biotransformation [20]
8 | CN1[C@@H]2CC[C@H]1C[C@@H](OC(=O)[C@H](CO)c1ccccc1)C2 [HYOSCYAMINE] | Compound NOT metabolized | Compound NOT metabolized | Compound metabolized |  | Compound metabolized |  |  |  |  | Compound NOT metabolized | Compound NOT metabolized | Compound NOT metabolized |  |  | Compound NOT metabolized | Compound NOT metabolized |  | Compound NOT metabolized | Compound NOT metabolized | Compound NOT metabolized
9 | COc1ccc(Cc2nccc3cc(OC)c(OC)cc23)cc1OC [PAPAVERINE] | Compound NOT metabolized | Compound metabolized | Compound metabolized | Compound metabolized | Compound metabolized | Compound NOT metabolized | Compound metabolized | Compound NOT metabolized | Compound metabolized | Compound metabolized | Compound NOT metabolized | Compound metabolized |  | Compound metabolized | Compound metabolized | Compound metabolized |  |  | Compound metabolized | Compound NOT metabolized
